{"source": "ChEMBL document CHEMBL5291721", "about": "“A preclinical secondary pharmacology resource illuminates target-adverse drug reaction associations of marketed drugs” (Nat Commun, 2023); further: assay procedure not described here", "key": {"[1]": {"target": "T1, Retinoic acid receptor gamma (Homo sapiens, UniProt P13631)", "T1 sequence (P13631 whole entry)": "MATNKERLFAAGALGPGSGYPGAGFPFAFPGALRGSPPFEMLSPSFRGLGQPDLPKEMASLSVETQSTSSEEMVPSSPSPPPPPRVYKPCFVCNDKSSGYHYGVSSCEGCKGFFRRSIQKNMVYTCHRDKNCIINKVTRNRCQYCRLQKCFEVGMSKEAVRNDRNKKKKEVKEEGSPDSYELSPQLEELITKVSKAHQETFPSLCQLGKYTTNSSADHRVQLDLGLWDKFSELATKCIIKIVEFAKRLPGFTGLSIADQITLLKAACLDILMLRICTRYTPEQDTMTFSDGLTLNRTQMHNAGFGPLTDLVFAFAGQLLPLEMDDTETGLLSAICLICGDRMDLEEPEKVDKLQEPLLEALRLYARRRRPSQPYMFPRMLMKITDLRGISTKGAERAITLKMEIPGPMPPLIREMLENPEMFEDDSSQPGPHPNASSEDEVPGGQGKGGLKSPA", "format": "functional, cell-based"}, "[2]": {"target": "T2, Oxysterols receptor LXR-beta (Homo sapiens, UniProt P55055)", "T2 sequence (P55055 whole entry)": "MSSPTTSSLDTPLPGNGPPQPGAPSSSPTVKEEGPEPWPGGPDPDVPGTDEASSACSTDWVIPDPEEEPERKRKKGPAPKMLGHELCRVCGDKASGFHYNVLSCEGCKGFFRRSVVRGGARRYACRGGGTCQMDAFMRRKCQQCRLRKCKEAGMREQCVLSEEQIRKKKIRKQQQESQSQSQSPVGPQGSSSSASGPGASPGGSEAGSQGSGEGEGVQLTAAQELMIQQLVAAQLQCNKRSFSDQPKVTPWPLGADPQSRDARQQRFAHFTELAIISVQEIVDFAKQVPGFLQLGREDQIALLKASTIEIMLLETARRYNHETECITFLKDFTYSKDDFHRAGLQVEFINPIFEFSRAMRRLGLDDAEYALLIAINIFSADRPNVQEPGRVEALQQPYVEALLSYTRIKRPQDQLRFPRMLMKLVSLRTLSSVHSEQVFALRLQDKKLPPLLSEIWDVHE", "format": "functional"}, "Glucocorticoid receptor [3]": {"target": "T3, Glucocorticoid receptor (Homo sapiens, UniProt P04150)", "T3 sequence (P04150 whole entry)": "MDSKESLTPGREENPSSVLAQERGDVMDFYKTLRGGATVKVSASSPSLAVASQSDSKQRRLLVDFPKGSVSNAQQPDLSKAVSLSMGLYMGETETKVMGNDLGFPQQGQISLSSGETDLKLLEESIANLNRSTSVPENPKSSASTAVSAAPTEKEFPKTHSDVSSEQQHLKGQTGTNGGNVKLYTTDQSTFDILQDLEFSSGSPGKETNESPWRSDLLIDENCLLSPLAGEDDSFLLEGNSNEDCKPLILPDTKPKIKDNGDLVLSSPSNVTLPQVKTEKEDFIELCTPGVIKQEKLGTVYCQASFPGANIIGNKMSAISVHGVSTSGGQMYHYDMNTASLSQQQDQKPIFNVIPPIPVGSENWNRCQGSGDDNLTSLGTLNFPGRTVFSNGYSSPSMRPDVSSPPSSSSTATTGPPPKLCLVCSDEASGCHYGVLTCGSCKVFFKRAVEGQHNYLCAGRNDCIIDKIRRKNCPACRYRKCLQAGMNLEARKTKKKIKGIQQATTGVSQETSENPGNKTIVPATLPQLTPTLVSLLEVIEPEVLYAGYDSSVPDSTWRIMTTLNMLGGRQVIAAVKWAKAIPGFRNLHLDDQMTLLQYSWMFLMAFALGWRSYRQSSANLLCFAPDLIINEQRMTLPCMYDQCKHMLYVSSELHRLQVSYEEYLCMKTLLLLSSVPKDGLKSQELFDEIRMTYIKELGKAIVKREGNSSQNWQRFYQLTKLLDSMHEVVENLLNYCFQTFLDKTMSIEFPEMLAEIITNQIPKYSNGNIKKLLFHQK", "format": "functional"}, "Glucocorticoid receptor [4]": {"target": "T3, Glucocorticoid receptor", "format": "functional", "remark": "listed apart in the source"}, "D(1A) dopamine receptor": {"target": "D(1A) dopamine receptor (Homo sapiens, UniProt P21728)", "sequence (P21728 whole entry)": "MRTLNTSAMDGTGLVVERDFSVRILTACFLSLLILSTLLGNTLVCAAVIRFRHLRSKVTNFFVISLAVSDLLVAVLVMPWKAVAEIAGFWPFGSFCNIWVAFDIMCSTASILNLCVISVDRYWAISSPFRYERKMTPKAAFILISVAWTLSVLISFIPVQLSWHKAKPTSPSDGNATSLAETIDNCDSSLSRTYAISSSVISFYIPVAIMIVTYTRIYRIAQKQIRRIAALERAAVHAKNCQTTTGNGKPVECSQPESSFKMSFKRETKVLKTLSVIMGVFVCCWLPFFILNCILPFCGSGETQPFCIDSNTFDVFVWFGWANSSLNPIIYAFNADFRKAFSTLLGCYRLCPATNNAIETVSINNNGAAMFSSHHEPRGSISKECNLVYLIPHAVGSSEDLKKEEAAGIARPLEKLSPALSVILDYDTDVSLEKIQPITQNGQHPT"}, "[5]": {"target": "T4, Alpha-1A adrenergic receptor (Homo sapiens, UniProt P35348)", "T4 sequence (P35348 whole entry)": "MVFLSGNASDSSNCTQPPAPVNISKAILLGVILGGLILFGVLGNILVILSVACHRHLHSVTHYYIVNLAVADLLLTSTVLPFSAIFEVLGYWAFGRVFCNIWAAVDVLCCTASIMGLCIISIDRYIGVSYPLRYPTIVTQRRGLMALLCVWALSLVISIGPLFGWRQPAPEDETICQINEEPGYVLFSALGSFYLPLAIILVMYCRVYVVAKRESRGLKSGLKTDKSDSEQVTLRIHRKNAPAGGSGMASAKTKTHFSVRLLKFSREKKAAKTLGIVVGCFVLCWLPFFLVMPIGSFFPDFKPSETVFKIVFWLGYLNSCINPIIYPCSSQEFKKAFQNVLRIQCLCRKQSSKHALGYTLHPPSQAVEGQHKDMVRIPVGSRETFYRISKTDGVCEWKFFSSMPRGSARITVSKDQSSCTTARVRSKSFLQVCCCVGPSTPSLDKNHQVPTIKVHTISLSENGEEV", "format": "functional, cell-based"}, "[6]": {"target": "T4, Alpha-1A adrenergic receptor"}, "Adenosine receptor A1": {"target": "T5, Adenosine receptor A1 (Homo sapiens, UniProt P30542)", "T5 sequence (P30542 whole entry)": "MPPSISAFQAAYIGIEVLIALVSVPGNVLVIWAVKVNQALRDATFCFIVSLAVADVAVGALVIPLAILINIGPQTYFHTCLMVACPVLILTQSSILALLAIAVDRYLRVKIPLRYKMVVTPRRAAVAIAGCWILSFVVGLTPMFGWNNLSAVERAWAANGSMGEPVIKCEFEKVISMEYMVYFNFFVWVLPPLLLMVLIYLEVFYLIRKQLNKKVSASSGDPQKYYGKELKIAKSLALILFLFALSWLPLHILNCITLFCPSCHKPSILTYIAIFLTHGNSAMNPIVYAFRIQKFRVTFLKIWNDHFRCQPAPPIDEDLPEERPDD"}}}
{"compound": "CC(C)c1c(C(=O)Nc2ccccc2)c(-c2ccccc2)c(-c2ccc(F)cc2)n1CC[C@@H](O)C[C@@H](O)CC(=O)O", "note": "[ATORVASTATIN]", "values": [{"measurement": "AC50", "setting": "[1]", "result": "> 30", "unit": "µM"}, {"measurement": "AC50", "setting": "[2]", "result": "> 30", "unit": "µM"}]}
{"compound": "[H]/N=C(/N)c1ccc(NCc2nc3cc(C(=O)N(CCC(=O)O)c4ccccn4)ccc3n2C)cc1", "note": "[DABIGATRAN]", "values": [{"measurement": "AC50", "setting": "Glucocorticoid receptor [3]", "result": "> 30", "unit": "µM"}, {"measurement": "AC50", "setting": "Glucocorticoid receptor [4]", "result": "> 30", "unit": "µM"}]}
{"compound": "CCN1CCC[C@H]1CNC(=O)c1cc(S(N)(=O)=O)ccc1OC", "note": "[LEVOSULPIRIDE]", "values": [{"measurement": "AC50", "setting": "D(1A) dopamine receptor", "result": 12, "unit": "µM"}]}
{"compound": "Nc1nc2ccc(OC(F)(F)F)cc2s1", "note": "[RILUZOLE]", "values": [{"measurement": "AC50", "setting": "[5]", "result": "> 30", "unit": "µM"}]}
{"compound": "BIVALIRUDIN", "values": [{"measurement": "AC50", "setting": "[6]", "result": "> 30", "unit": "µM"}, {"measurement": "AC50", "setting": "Adenosine receptor A1", "result": "> 30", "unit": "µM"}]}
